What all share (format): cell-based
The subject of test [1] is COL1A1. Nature of the test: In vitro efficacy in semi-activated LX2 cells, qPCR: COL1A1. The note with it: 48 hours, Q-PCR; for inhibition at 50 µM: LX-2, 50 µM; for inhibition at 12.5 µM: LX-2, test concentration 12.5 μM; for inhibition at 100 µM: LX-2, test concentration 100 μM. The method, then: (§1) Test compounds were added to the LX-2 cells respectively, and total RNA in the cells was extracted 48 hours later. This experiment was performed strictly in accordance with the instructions of the Total RNA Kit. The steps were as follows (note: this experiment was performed on ice throughout the entire process, and special RNase-free tips were used throughout the entire process): • 1) The 12-well cell culture plate was taken out from the incubator, the cell culture medium was discarded, the cells were washed twice with 1 mL of 1×PBS, and a negative pressure suction device was used to fully remove PBS; • 2) 350 μL of TRK Lysis Buffer mixture/well was prepared as needed (mixture preparation method: 1 mL of TRKLysis Buffer+20 μL of β-mercaptoethanol), vortexed and mixed well. 350 μL was added to each well of the 12-well cell culture plate, and allowed to stand at room temperature for 5 minutes to fully lyse the cells; • 3) 70% ethanol/well was prepared as needed, vortexed and mixed well. 350 μL was added to each well of the 12-well cell culture plate, mixed well by shaking, and transferred to the spin column (spin column+collection tube were assembled); • 4) Centrifugation was performed at 4° C., 12000 g for 60 sec. The waste liquid was discarded after centrifugation, while the spin column was kept; • 5) 500 μL of RNA Wash Buffer I was added, centrifuged at 4° C., 12000 g for 60 sec, the waste liquid was discarded after centrifugation, and the collection column was kept; • 6) 500 μL of RNA Wash Buffer II (confirmed that ethanol had been added) was added, centrifuged at 4° C., 12000 g for 60 sec, the waste liquid was discarded after centrifugation, and the collection column was kept; • 7) step 6) was repeated once again, centrifugation was performed at 4° C., 12000 g for 90 sec, the waste liquid was discarded after centrifugation, and the collection column was kept; • 8) Centrifugation was performed at 4° C., 12000 g for 120 sec to ensure that the spin column was fully dried; • 9) The dried spin column was inserted into a new 1.5 mL EP tube, and 30 μL of DEPC water was added to the membrane in the center of the spin column. It should be careful not to touch the EP tube cover in this step. It was allowed to stand at room temperature for 5 minutes to ensure that the RNA was fully dissolved in DEPC water. Centrifugation was performed at 4° C., 12000 g for 60 sec, and the EP tube was kept; • 10) NanoDrop ultra-micro-volume spectrophotometer was used to detect RNA concentration;
(§2) 5.2 Reverse transcription of RNA into cDNA: According to the instructions of PrimeScript™ RT reagent Kit (Perfect Real Time), the specific experimental steps were as follows:
(§3) 5.3 Q-PCR detection of target gene expression: According to the instructions of Power SYBR® Green PCR Master Mix, the specific operations were as follows:
(§4) After the reaction was completed, the amplification curve and dissolution curve of Q-PCR were confirmed, and the relative quantification method ([…]) was used to perform data analysis on the experimental results.
(§5) LX2 cells were passaged and plated normally. […] After 48 hours, the cells were collected, total RNA was extracted, and Q-PCR was used to detect the changes in the mRNA expression levels of liver fibrosis-related genes (ACTA2 encoding α-SMA, COL1A1 and COLIA2 encoding collagen I, COL3A1 encoding collagen III, SMAD3 encoding Smad3) and inflammation-related genes (IL1β encoding IL-1β, TNFα encoding TNFα) (for specific methods, see 5. Q-PCR detection of target gene expression as described above). α-SMA was a marker of hepatic stellate cell activation, and collagen I and collagen III were the main components of extracellular matrix deposition.

Test [2] concerns COL3A1. The test is described as follows: In vitro efficacy in semi-activated LX2 cells, qPCR: COL3A1. The note with it: 48 hours, Q-PCR; for inhibition at 50 µM: LX-2, 50 µM; for inhibition at 12.5 µM: LX-2, test concentration 12.5 μM; for inhibition at 100 µM: LX-2, test concentration 100 μM. The method, then:
as §1, §2, §3, §4, §5

The test system of test [3] is α-SMA. Nature of the test: In vitro efficacy in semi-activated LX2 cells, qPCR: α-SMA. The note with it: 48 hours, Q-PCR; for inhibition at 50 µM / inhibition at 12.5 µM / inhibition at 100 µM: read-out: α-SMA mRNA inhibition rate; for inhibition of the expression of α-SMA at the mRNA level: Table 2; for inhibition at 100 µM: test concentration 100 μM. The method, then:
as §1, §2, §3, §4, §5

In test [4] the test system is Smad3. The test is described as follows: In vitro efficacy in semi-activated LX2 cells, qPCR: Smad3. The note with it: 48 hours, Q-PCR; for inhibition at 50 µM: LX-2, 50 µM. The method, then: as §1, §2, §3, §4, §5
The test system of test [5] is collagen I and collagen III. The test is described as follows: Semi-activated LX2 cells, qPCR: collagen I and collagen III at the mRNA level. The note with it: 48 hours, Q-PCR, Table 2. The method, then:
as §1, §3
LX2 cells were passaged and plated normally. After adherent growth for 12 hours, 50 µM of the test compound was added. After 48 hours, the cells were collected, total RNA was extracted, and Q-PCR was used to detect the changes in the mRNA expression levels of liver fibrosis-related genes (ACTA2 encoding α-SMA, COL1A1 and COLIA2 encoding collagen I, COL3A1 encoding collagen III, SMAD3 encoding Smad3) and inflammation-related genes (IL1β encoding IL-1β, TNFα encoding TNFα) (for specific methods, see 5. Q-PCR detection of target gene expression as described above). α-SMA was a marker of hepatic stellate cell activation, and collagen I and collagen III were the main components of extracellular matrix deposition. […]

Where [6] appears, read: Homo sapiens, read-out: COL1A1 mRNA inhibition rate.
Where [7] appears, read: Homo sapiens, read-out: COL3A1 mRNA inhibition rate.
Where [8] appears, read: Homo sapiens, read-out: Smad3 mRNA inhibition rate.

Data on 21 molecules can be found in US20250025438A1, “Derivative of aspartic acid and use thereof in treatment of metabolic diseases such as hepatic fibrosis and non-alcoholic hepatitis” (SHENZHEN JINGTAI TECHNOLOGY CO., LTD., priority 2021, published 2025).

Structures can show the parent of a compound that is named as a salt. Where a SMILES comes first, the peptide text is derived from it.

On to `N[C@@H](CC(=O)O)C(=O)OCc1ccccc1` [Compound 20], for which, in test [1] (test concentration 12.5 μM), the “COL1A1 mRNA inhibition rate” value is given as “E (E represented that the inhibition rate was 1% to 10%)”. Also, in test [2] (test concentration 12.5 μM), the “COL3A1 mRNA inhibition rate” value is “E (E represented that the inhibition rate was 1% to 10%)”. Besides, the “α-SMA mRNA inhibition rate” value in test [3] (test concentration 12.5 μM) is “E (E represented that the inhibition rate was 1% to 10%)”. In test [4] (test concentration 12.5 μM), the “Smad3 mRNA inhibition rate” value is reported as “E (E represented that the inhibition rate was 1% to 10%)”.

For the molecule `CC(C)(C)OC(=O)N[C@@H](CC(=O)OCc1ccccc1)C(=O)O` [Compound 24], the inhibition at 50 µM in test [1] (setting [6]) and in test [2] (setting [7]) was 1 to 10% each time.

As to `COC(=O)[C@H](CC(=O)O)NC(=O)OCc1ccccc1` [Compound 25], the inhibition at 50 µM in test [1] (setting [6]) and in test [3] was 1 to 10% in each case.

Turning to `N[C@@H](CC(=O)NC(c1ccccc1)(c1ccccc1)c1ccccc1)C(=O)O` [Compound 27], in test [4] (setting [8]), the inhibition at 50 µM fell in the range of 1 to 10%.

Take `COC(=O)[C@H](Cc1ccccc1)NC(=O)C[C@H](N)C(=O)O` [Compound 32]: the inhibition at 50 µM in test [1] (setting [6]) fell in the range of 10 to 25%; in test [2] (setting [7]), 1 to 10%; in test [3], 1 to 10%.

As for `CCOC(=O)C[C@H](N)C(=O)O` [Compound 35, 4-ethyl L-aspartic acid ester], the inhibition at 50 µM was in the range of 10 to 25% in test [1] (setting [6]) and 1 to 10% in test [2] (setting [7]). The “inhibition of the expression of collagen I and collagen III at the mRNA level” value in test [5] is given as “could inhibit”.

As for `C[C@@H](NC(=O)[C@@H](N)CC(=O)O)C(=O)NC1C(C)(C)SC1(C)C` [Compound 38], the values for the inhibition at 50 µM in test [1] (setting [6]) and in test [2] (setting [7]) were 25 to 50% and 1 to 10%, respectively. Besides, in test [5], the “inhibition of the expression of collagen I and collagen III at the mRNA level” value is listed as “could inhibit”.

On to `N[C@H](C(=O)O)[C@@H](N)C(=O)O` [Compound 43], for which the inhibition at 50 µM in test [2] (setting [7]), in test [3] and in test [4] (setting [8]) was 1 to 10% each time.

For the molecule `CC(C)OC(=O)OCOC(=O)[C@@H](N)CC(=O)O` [Compound 51, 1-(((isopropoxycarbonyl)oxy)methyl) L-aspartic acid ester hydrochloride], the inhibition at 50 µM in test [3] was in the range of 1 to 10%.

In the case of `N[C@@H](CC(=O)O)C(=O)OCOC(=O)[C@@H](N)CC(=O)O` [Compound 57, (3S,3'S)-4,4′-(methylenebis (oxy))bis (3-amino-4-oxobutyric acid) hydrochloride], the inhibition at 25 µM in test [4] (Homo sapiens, LX-2, test concentration 25 μM, read-out: Smad3 mRNA inhibition rate) lay in the range of 1 to 10%.

On to `O=C(O)C[C@H](NC(=O)C1CC1)C(=O)O` [Compound 60, (cyclopropylcarbonyl)-L-aspartic acid], for which the inhibition at 50 µM in test [3] and in test [4] (setting [8]) was 1 to 10% each time.

`COC(=O)C[C@H](NC(C)=O)C(=O)O` [Compound 63, 4-methyl acetyl-L-aspartic acid ester]: the inhibition at 50 µM in test [2] (setting [7]) was 10 to 25%; in test [3] it was 1 to 10%. Besides, the “inhibition of the expression of collagen I and collagen III at the mRNA level” value in test [5] is “could inhibit”.

`COC(=O)[C@H](CC(=O)O)NC(C)=O` [Compound 65, 1-methyl acetyl-L-aspartic acid ester]: the values for the inhibition at 12.5 µM in test [1] (setting [6]), in test [2] (setting [7]) and in test [3] (test concentration 12.5 μM) were 10 to 25%, 1 to 10% and 1 to 10%, respectively.

For `CCC(=O)N[C@@H](CC(=O)O)C(=O)OC` [Compound 66, 1-methyl propionyl-L-aspartic acid ester], the inhibition at 50 µM in test [1] (setting [6]) was 25 to 50%. Moreover, the “inhibition of the expression of collagen I and collagen III at the mRNA level” value in test [5] is on record as “could inhibit”.

Regarding `COC(=O)C[C@H](NC(=O)[C@H](C)N)C(=O)O` [Compound 67, (S)-2-((S)-2-aminopropionamido)-4-methoxy-4-oxobutyric acid hydrochloride] (HELM PEPTIDE1{A.D}|CHEM1{[CO[*:1]]}$PEPTIDE1,CHEM1,2:R3-1:R1$$$V2.0), the inhibition at 50 µM in test [2] (setting [7]) was 1 to 10%.

Turning to `COC(=O)C[C@H](N)C(=O)OC(C)OC(=O)[C@@H](N)CC(=O)OC` [Compound 68, O′1,O1-(ethan-1,1-diyl)4-dimethyl (2S,2'S)-bis (2-aminosuccinate) hydrochloride], the inhibition at 100 µM lay in the range of 1 to 10% in test [1] (setting [6]), 1 to 10% in test [2] (setting [7]) and 25 to 50% in test [3]. The “inhibition of the expression of α-SMA at the mRNA level” value (“inhibition of the expression of α-SMA” below) in test [3] was “could inhibit”.

As to `CCOC(=O)C[C@H](N)C(=O)OCOC(=O)[C@@H](N)CC(=O)OC` [Compound 70, 1-((((S)-2-amino-4-ethoxy-4-oxobutyryl)oxy)methyl) 4-methyl L-aspartic acid ester hydrochloride], the inhibition at 100 µM in test [1] (setting [6]) was 1 to 10%; in test [2] (setting [7]), 10 to 25%; in test [3] it was 50 to 75%. Besides, the “inhibition of the expression of α-SMA” value in test [3] is “could inhibit”. Moreover, the “inhibition of the expression of collagen I and collagen III at the mRNA level” value in test [5] was “could inhibit”.

Take `COC(=O)C[C@H](N)C(=O)OCOC(=O)[C@@H](N)CC(=O)OC(C)C` [Compound 71, 1-((((S)-2-amino-4-isopropoxy-4-oxobutyryl)oxy)methyl) 4-methyl L-aspartic acid ester hydrochloride]: the inhibition at 12.5 µM was in the range of 10 to 25% in test [1] (setting [6]) and 1 to 10% in test [2] (setting [7]). Moreover, in test [5], the “inhibition of the expression of collagen I and collagen III at the mRNA level” value is reported as “could inhibit”.

Take `CCOC(=O)C[C@H](N)C(=O)OCOC(=O)[C@@H](N)CC(=O)OCC` [Compound 72, hydrochloride]: the inhibition at 25 µM lay in the range of 25 to 50% in test [1] (Homo sapiens, LX-2, test concentration 25 μM, read-out: COL1A1 mRNA inhibition rate) and 25 to 50% in test [2] (Homo sapiens, LX-2, test concentration 25 μM, read-out: COL3A1 mRNA inhibition rate). Moreover, the “inhibition of the expression of collagen I and collagen III at the mRNA level” value in test [5] was “could inhibit”.

Turning to `CC(C)OC(=O)C[C@H](N)C(=O)OCOC(=O)[C@@H](N)CC(=O)OC(C)C` [Compound 73, 4-diisopropyl O′1,O1-methylene (2S,2'S)-bis (2-aminosuccinate) hydrochloride], in test [3], the “inhibition of the expression of α-SMA” value is on record as “could inhibit”. In test [3] (test concentration 12.5 μM), the inhibition at 12.5 µM lay in the range of 10 to 25%.

Consider `COC(=O)C[C@H](N)C(=O)OCOC(=O)C[C@H](N)C(=O)OC.Cl` [Compound 74, 4-((((S)-2-amino-4-methoxy-4-oxobutyryl)oxy)methyl)1-methyl L-aspartic acid ester hydrochloride], for which the inhibition at 100 µM in test [1] (setting [6]), in test [2] (setting [7]) and in test [3] was 25 to 50% in each case. Also, the “inhibition of the expression of collagen I and collagen III at the mRNA level” value in test [5] is on record as “could inhibit”.
